Consider 2 compounds from patent US20240016946A1, “DRUG-LOADED MACROMOLECULE AND PREPARATION METHOD THEREFOR” (SHANGHAI SENHUI MEDICINE CO., LTD., priority 2020, published 2024).

Series [1] in a line: Pharmacokinetic study, single intravenous injection to rats (Test Example 1). It is filed as in vivo, SD rats. As to the method: • (1) Preparation of docetaxel: commercially available docetaxel injection (0.5 mL:20 mg) was diluted to 4 mg/mL with normal saline; • (2) Preparation of other test compounds: the compounds were dissolved in DMSO with a final concentration of 5%, and the solutions were diluted to 4 mg/mL with normal saline.
Female SD rats, weighing 160-180 g, 6 weeks old, SPF
Plasma samples were separated, and the esterase inhibitor DDVP was added. The samples were stored at −80° C. and tested for docetaxel level (N=3).

Series [2] in a line: Pharmacokinetic study, single intravenous injection to beagle dogs, docetaxel macromolecules (Test Example 2). The conditions noted are these: single IV 3 mg/kg, free docetaxel in plasma, mean (1 male + 1 female). The series is classed as in vivo. The procedure: Docetaxel (84 mg/vial, commercially available) was dissolved in 5% (final volume) DMSO+30% PEG300+5% Tween 80+60% deionized water to obtain 0.6 mg/mL formulations for intravenous injection.
Beagle dogs, non-naïve, sourced from Medicilon: 999M-004.
Method of administration: the weight was measured and the dosing amount was calculated based on the weight. The drugs were slowly administered by intravenous injection. Blood was collected from the jugular vein or by other suitable means, about 1 mL per sample. Plasma samples were collected before administration and at different time points after administration and tested for free docetaxel level in plasma. For the docetaxel group, collection was performed before administration and at 0.083 h, 0.5 h, 1 h, 2 h, 4 h, 6 h, 8 h and 24 h after administration.

The subject of series [3] is human lung cancer cell A549. The series is described as follows: Antitumor effect in subcutaneous tumor graft model of human lung cancer cell A549 (Test Example 3). Particulars: for Tumor volume: i.v. QW × 4 doses, docetaxel 20, 1-Z00 20, 1-Z00-J 10 mg/kg. The series is classed as in vivo, BALB/C nude mice. As to the method: Samples are prepared according to Table 5 below.
BALB/C nude mice, female, 6-7 week old (the age when tumor cell inoculation was performed), weighing 16.5-22.6 g, purchased from GemPharmatech Co., Ltd., certificate No. 320727210100243463. Housing environment: SPF.
A549 cells (National Collection of Authenticated Cell Cultures/Cell Bank of Shanghai Institutes for Biological Sciences (cellbank.org.cn, SIBS)) were cultured in an F12K medium (Gibco) containing 10% fetal bovine serum. Cells were collected when growing at the exponential phase and resuspended in PBS to a suitable concentration for use in subcutaneous tumor inoculation in mice.
5×10^6 A549 cells were subcutaneously inoculated into the right side of female mice (inoculation volume: 0.1 mL/mouse). The day of inoculation was defined as day 0. When the mean tumor volume was 142.96 mm^3 (on day 13 after cell inoculation), the mice were randomly grouped according to tumor size as shown in Table 6 below (dosing volume: 10 μL/g).
After tumor inoculation, routine monitoring items included the effect of tumor growth and treatment on the normal behavior of animals, including activity, food intake and water intake, weight gain or loss (body weight was measured twice a week), abnormalities in eyes, hair, etc. Clinical symptoms observed during the experiment were all recorded in the raw data. Tumor volume calculation formula: tumor volume (mm^3)=½×(a×b^2) (where a represents long diameter and b represents short diameter). In the experiment, data collection, including measurement of tumors' long and short diameters and animals' body weight, was performed using StudyDirector™ (version: 3.1.399.19; supplier: Studylog System, Inc., S. San Francisco, CA, USA) software. Raw data measured by scales and vernier calipers were directly imported into the software. Any changes in the data were recorded in the software.
When the body weight of an individual animal decreased by >20%, it was euthanized according to animal welfare.
Relative tumor proliferation rate, T/C (%), refers to the percentage value of the relative tumor volume or tumor weight of the treatment group and the control group at a certain time point. The calculation formula is: T/C %=TRTV/CRTV×100% (TRTV: mean RTV of treatment group; CRTV: mean RTV of control group; RTV=Vt/V0, V0 is the tumor volume of the animal at the time of grouping, and Vt is the tumor volume of the animal after treatment).
All the results are expressed as mean tumor volume±SEM (standard error of the mean). The best point of drug treatment (usually after the last administration) was selected for statistical analysis between different groups. A two-way ANOVA was used to determine whether there was a significant difference in tumor volume between a treatment group and the control group. p<0.05 indicates a significant difference. Statistical analysis and graphing were both performed in the R language environment (version 3.3.1). All tests were two-tailed unless otherwise specified. A p value less than 0.05 was considered statistically significant.

Series [4] in a line: Hematological analysis (complete blood count) in the A549 subcutaneous tumor graft model (Test Example 3).
Description: After the last administration, plasma was collected at the time points designated in Table 7 (EDTA anticoagulant tubes were used (the esterase inhibitor DDVP was added at the time of blood collection)). After plasma collection at the last time point was complete, the mice were euthanized, and tumors were collected, snap frozen and stored.
In the next series the test system is platelet (PLT). The series is described as follows: Effect of single intravenous injection on platelet count in beagle dogs (Test Example 5). The series is classed as in vivo. As to the method: Method of administration: the weight was measured and the dosing amount was calculated based on the weight; the administration regimen is shown in Table 13 below. The drugs were slowly administered by intravenous injection. Blood was collected from the jugular vein or by other suitable means, about 1 mL per sample.

[5] abbreviates: female SD rats, single IV 10 mg/kg, docetaxel level in plasma, N=3.
The mark [6] stands for this setting: rat, female SD rats, single IV 10 mg/kg, docetaxel level in plasma, N=3.
Where [7] appears, read: day 21 after administration began, docetaxel 20, 1-Z00 20, 1-Z00-J 10 mg/kg i.v. QW × 4.
The mark [8] stands for this setting: A549 tumor-bearing mice after last administration, docetaxel 20, 1-Z00 20, 1-Z00-J 10 mg/kg i.v., mean ± standard deviation.

Where “and” joins values, the source holds several entries; their conditions need not be identical. Equal values may be shown once.

In series [1] (setting [5]), `CC(=O)O[C@@]12CO[C@@H]1C[C@H](O)[C@@]1(C)C(=O)[C@H](O)C3=C(C)[C@@H](OC(=O)[C@H](O)[C@@H](NC(=O)OC(C)(C)C)c4ccccc4)C[C@@](O)([C@@H](OC(=O)c4ccccc4)[C@H]21)C3(C)C` [Docetaxel] returned an AUMC0-inf of 2663.5 h · h · ng · mL^−1, an AUMC0-t of 1669.3 h · h · ng · mL^−1, a Kel of 0.3 h⁻¹ and an MRTIV of 1.8 h. In series [1] (setting [6]), the total exposure AUC(0-inf) (usually the area under the concentration-time curve extrapolated to infinity) was 1480 ng·h/mL; the AUC(0-t) (commonly exposure summed from dosing to a finite time, without extrapolation to infinity) was 1400 ng·h/mL; the C0 is 2840 ng/mL; the Cmax (as a rule, the maximum level reached in the sampled fluid or tissue) amounted to 1990 ng/mL. In series [1] (setting [6]), the clearance (usually a measure of how efficiently the substance is removed, as volume per time) came out at 116 mL/min/kg and the half-life (commonly how long it takes for the measured level to halve) is 2.1 h. Moreover, the Vd in series [1] (rat, female SD rats, single IV 10 mg/kg, docetaxel level in plasma, N=3, read-out: VdSS) stood at 12.1 L/kg. Besides, the “sustained-release effect, exposure and clearance (conclusion in words)” value in series [1] (rats, IV 10 mg/kg) was “rapid plasma clearance and low exposure”. In series [2] (both sexes, dog), the AUC(0-inf) worked out at 2040 ng·h/mL, the AUC(0-t) stood at 1890 ng·h/mL, the clearance is 24.6 mL/min/kg and the half-life is 13.5 h. Further, the Vd in series [2] (both sexes, dog, read-out: Vdss) turned out to be 7.39 L/kg. In series [2], the AUMC0-inf came to 10234 h·h·ng·mL^−1, the AUMC0-t came out at 3854 h·h·ng·mL^−1, the Kel amounted to 0.0515 h⁻¹ and the “Mean residence time (MRT)” value was 5.02 h. In series [3] (day 0 after administration began (baseline at grouping), mean ± standard error), this compound had a Tumor volume of 142.49 ± 6.17 mm^3. The Tumor volume in series [3] (day 3 after administration began, mean ± standard error) worked out at 187.27 ± 18.12 mm^3. The compound further registered a Tumor volume in series [3] (day 7 after administration began, mean ± standard error) of 294.09 ± 32.19 mm^3. This compound also yielded a Tumor volume in series [3] (day 10 after administration began, mean ± standard error) of 362.73 ± 41.13 mm^3. The compound also had a Tumor volume in series [3] (day 14 after administration began, mean ± standard error) of 460.59 ± 68.72 mm^3. Further, the Tumor volume in series [3] (day 17 after administration began, mean ± standard error) was 502.25 ± 84.97 mm^3. In addition, in series [3] (setting [7]), the “T/C (relative tumor proliferation rate)” value amounted to 33.76% and the “TGI (relative tumor inhibition)” value was 66.24%. Further, the Relative tumor volume in series [3] (day 21 after administration began, docetaxel 20, 1-Z00 20, 1-Z00-J 10 mg/kg i.v. QW × 4, mean ± standard error) is reported as 3.87 ± 0.61. Besides, the Tumor volume in series [3] (day 21 after administration began, mean ± standard error) was 564.93 mm^3 and 564.93 ± 108.61 mm^3. Moreover, in series [4] (20 mg/kg i.v.), the “decrease of white blood cells, lymphocytes and mononuclear cells compared to the vehicle control group (factor)” value was 2-3. In series [4] (setting [8]), the “Eosinophil EO#” value is listed as 0.02 ± 0.02 10^9/L, the “Lymphocyte LYMPH#” value was 1.58 ± 0.39 10^9/L, the “Mononuclear cell MONO#” value is recorded as 0.11 ± 0.02 10^9/L and the “Neutrophil NEUT#” value was 0.81 ± 0.47 10^9/L. In addition, the “White blood cell count WBC” value in series [4] (setting [8]) is listed as 2.52 ± 0.08 10^9/L.
As for `O=C(NS(=O)(=O)c1ccc(N[C@@H](CSc2ccccc2)C[C@@H]2CCCN2CCO)c(S(=O)(=O)C(F)(F)F)c1)c1ccc(N2CCC([C@@H](O)c3ccccc3-c3ccc(Cl)cc3)CC2)cc1` [Compound 3], the “Day 2 (24 h after administration) PLT mean value” in the series on platelet (PLT) (beagle dogs, 24 h after single IV 3 mg/kg, mean) was 34.00 10^9/L. Further, the “Day 1 (before administration) PLT mean value” in the series with platelet (PLT) (beagle dogs, before single IV 3 mg/kg (baseline), mean) is 355.00 10^9/L. In addition, in the series with platelet (PLT) (beagle dogs, single IV 3 mg/kg), the “Difference (%) between PLT count in dogs at 24 h after administration and that before administration” value is listed as −90.42%. The “mortality (animals died)” value with platelet (PLT) (beagle dogs, single IV 3 mg/kg, 3 dogs with compound 3, 2 dogs per dendrimer) was 2. Also, the “Day 2 (24 h after administration) PLT” value with platelet (PLT) (individual male beagle dog, 24 h after single IV 3 mg/kg) was 34.00 10^9/L. Further, the “Day 1 (before administration) PLT” value in the series with platelet (PLT) (individual male beagle dog, before single IV 3 mg/kg (baseline)) is 355.00 10^9/L.
